Source: patent US8652840B2, “Method for obtaining female germline stem cells and uses thereof” (The General Hospital Corporation, priority 2004, dated 2014)
Where two headings read alike, the source gives them in different places.

How the values were obtained:
[1] = tested on: oocyte-containing follicles; assay: In-vivo HDAC suppression with Trichostatin A, counts of oocyte-containing follicles; design: species or system mice
Excerpt: (§1) Age-specified or timed-pregnant wild-type C57BL/6 and CD1 female mice were obtained from Charles River Laboratories, whereas AKR/J mice were obtained from Jackson Laboratories. Ovaries were fixed in 0.34N glacial acetic acid, 10% formalin, and 28% ethanol, paraffin embedded, and serially sectioned (8 μm). The sections were aligned in order on glass microscope slides, and stained with hematoxylin and picric methyl blue. The number of non-atretic or atretic primordial, primary, and preantral follicles was then determined. Primordial follicles were identified as having a compact oocyte surrounded by a single layer of flattened granulosa cells, while primary follicles were identified as having an enlarged oocyte surrounded by a single layer of cuboidal granulosa cells. Intermediate-stage follicles (compact or enlarged oocyte with a single layer of mixed flattened and cuboidal granulosa cells) were scored as primary. Preantral follicles were identified as having an enlarged oocyte surrounded by at least a partial or complete second layer of cuboidal granulosa cells, but no more than four complete layers of cuboidal granulosa cells. Only those follicles containing an oocyte with a clearly visible nucleus were scored. Follicles at the primordial, primary and preantral (immature) stages of development were scored as atretic if the oocyte was degenerating (convoluted, condensed) or fragmented. Grossly atretic follicles lacking oocyte remnants were not included in the analyses. Given that this procedure sampled one-fifth of the entire ovarian volume, the total number of follicles per ovary (healthy or atretic) was then estimated by multiplying the cumulative counts for each ovary by a correction factor of five (Zuckerman, S. (1951) Recent Prog. Horm. Res. 6: 63-108; Tilly, J. L. (2003) Reprod. Biol. Endocrinol. 1:1-11). A single trained ovarian histologist in a blinded fashion conducted all counts, and two other members of the group periodically evaluated random samples to verify accuracy and reproducibility of the data.
Animals were sacrificed 24 hours post-injection, histological preparations of ovaries were prepared, and oocyte-containing follicles were counted per standard laboratory procedures (see Example 1). Treatment with TSA caused a 53% increase in the number of total healthy immature oocyte-containing follicles per ovary when compared with ovaries of control mice given the vehicle treatment. Not only was the resting (primordial) pool of follicles increased by 42%, but also the number of early growing (primary) follicles was increased (FIG. 7c).

primordial follicles = tested on: primordial follicles; design: species or system mice; details: mouse, in vivo
Excerpt: as §1, with “Given that this procedure sampled one-fifth of the entire ovarian volume, the total number of follicles per ovary (healthy or atretic) was then estimated by multiplying the cumulative counts for each ovary by a correction factor of five (Zuckerman, S. (1951) Recent Prog. Horm. Res. 6: 63-108; Tilly, J. L. (2003) Reprod. Biol. Endocrinol. 1:1-11).” left out, “data. […]” for “data.”
To clarify whether loss of primordial follicles observed in busulfan-treated females (FIG. 5a) results from toxicity to existing oocytes, ovaries were collected from female mice at multiple points during and after the busulfan dosing regimen described above, and they were analyzed for the incidence of primordial follicle atresia. […]

ovarian function = details: cited from earlier work
[2] = tested on: primordial and early growing follicles (oocytes); assay: Doxorubicin-synchronized oocyte death in adult female mice, germ cell dynamics; format: in vivo
Description: The existence of mammalian female germline stem cells implies an inherent capacity of the ovaries to generate, or regenerate following an insult, new stockpiles of resting (primordial) oocyte-containing follicles in a regulated fashion. To address this issue directly, adult female mice were injected with doxorubicin to synchronize oocyte death (Perez, G. I. et al, (1997) Nature Med. 3, 1228-32), and ovaries were collected at multiple intervals after drug exposure to assess germ cell dynamics.

[3] = prepubertal female mice, single i.p. injection 10 mg/kg, 24 hours post-injection

Compound: CC(/C=C/C(=O)NO)=C\[C@@H](C)C(=O)c1ccc(N(C)C)cc1 [TSA, Trichostatin A]
- increase in primordial follicle numbers ([1]; female mice at 240 days of age, within 24 h (data not shown)): 89%
- increase in healthy immature follicles (number) ([1]; prepubertal (13-day old) female mice, 10 mg/kg, 24 hours): more than 1,600
- increase in the number of total healthy immature oocyte-containing follicles per ovary versus vehicle [1, 3]: 53%
- increase of the resting (primordial) pool of follicles [1, 3]: 42%
- number of early growing (primary) follicles [1, 3]: increased

Compound: CS(=O)(=O)OCCCCOS(C)(=O)=O [busulfan]
- plateau number of atretic primordial follicles (primordial follicles; female, 20 mg/kg, 5 days): 46 per ovary
- reduction in the resting (primordial) oocyte pool (primordial follicles; female, 3 weeks): 95%
- ratio of primordial to primary follicles, busulfan versus vehicle (primordial follicles): No significant change
- POF, cases of patients (ovarian function; in vivo): 19 of 19
- hypogonadism indicative of premature ovarian failure (POF), cases of patients (ovarian function; in vivo): 20 of 21
- ovarian damage requiring hormonal replacement, cases of patients (ovarian function; in vivo): 4 of 4

Compound: O=P1(N(CCCl)CCCl)NCCCO1 (centres unmarked) [cyclophosphamide]
- POF, cases of patients (ovarian function; Grigg et al. 2000: both agents ages 14-57, median=38, cyclophosphamide alone ages 13-58, median=28): 47 of 103

Compound: COc1cccc2c1C(=O)c1c(O)c3c(c(O)c1C2=O)C[C@@](O)(C(=O)CO)C[C@@H]3O[C@H]1C[C@H](N)[C@H](O)[C@H](C)O1 [doxorubicin]
- primordial and total immature follicle pools ([2]; between 24 and 36 h post-treatment (data not shown)): spontaneous regeneration
- primordial and early growing follicles (oocytes) ([2]; within the first 24 h after treatment (data not shown)): rapid and extensive loss
